Assay results from PubChem BioAssay (NCI).
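Protocol summary: plate cells (96-well), add compound at 5 concentrations, incubate 48 h, interpolate endpoints linearly. TGI marks complete inhibition of growth.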

Columns and labels:
Test in all cases: NCI anticancer screen, dose series, 48 h
[1] = test system: MALME-3M melanoma
[2] = test system: SNB-19 CNS
[3] = test system: NCI/ADR-RES ovarian
[4] = test system: NCI-H522 lung
[5] = test system: EKVX NSCLC
[6] = test system: MDA-MB-435
[7] = test system: UACC-257 melanoma
[8] = test system: NCI-H23 lung
[9] = test system: A498 renal
[10] = test system: MCF7 breast
[11] = test system: SNB-75 CNS
[12] = test system: SF-539 CNS
[13] = test system: NCI-H460 lung
[14] = test system: LOX IMVI melanoma
[15] = test system: OVCAR-8 ovarian
[16] = test system: MDA-MB-231 breast
[17] = test system: SK-OV-3 ovarian
[18] = test system: TK-10 renal

SMILES | TGI [1] [µM] | TGI [2] [µM] | TGI [3] [µM] | TGI [4] [µM] | TGI [5] [µM] | TGI [6] [µM] | TGI [7] [µM] | TGI [8] [µM] | TGI [9] [µM] | TGI [10] [µM] | TGI [11] [µM] | TGI [12] [µM] | TGI [13] [µM] | TGI [14] [µM] | TGI [15] [µM] | TGI [16] [µM] | TGI [17] [µM] | TGI [18] [µM]
CN1C(=O)C(O)CC1c1ccccc1F (centres undefined) | > 100 | > 100 | > 100 | > 100 | > 100 | > 100 | > 100 | > 100 | > 100 | > 100 | > 100 | > 100 | > 100 | > 100 | > 100 | > 100 | – | –
CC1CCC2C(C)C(OC(=O)CCC(=O)O)OC3OC4(C)CCC1C32OO4 (centres undefined) | – | > 100 | > 100 | – | 32.7 | 13.6 | > 100 | – | > 100 | 28.5 | > 100 | 29.1 | 33.4 | 2.92 | > 100 | > 100 | > 100 | 14.7
CCOC(=O)CCCc1cc(=O)c2c(C)c3[nH]c4ccc(Cl)cc4c3c(C)c2[nH]1 | 73.2 | 60.7 | 66.2 | – | > 100 | 47.8 | > 100 | > 100 | 36.5 | 47.4 | 64 | 31.6 | 32.7 | > 100 | 59.8 | 69.7 | – | 48.8
c1ccc(C2(c3cc4ccccc4[nH]3)OCCO2)nc1 | > 100 | > 100 | > 100 | – | > 100 | > 100 | > 100 | > 100 | > 100 | > 100 | > 100 | > 100 | > 100 | > 100 | > 100 | > 100 | > 100 | > 100
CNc1ccc(C)cc1S(=O)(=O)c1ccccc1[N+](=O)[O-] | > 100 | > 100 | > 100 | > 100 | > 100 | > 100 | – | > 100 | > 100 | 65 | > 100 | > 100 | > 100 | > 100 | > 100 | > 100 | > 100 | > 100
COc1ccc(NCc2cccc3c(=O)c4ccc(Cl)cc4oc23)cc1 | > 100 | – | > 100 | > 100 | > 100 | > 100 | > 100 | > 100 | > 100 | > 100 | > 100 | > 100 | – | > 100 | > 100 | > 100 | > 100 | > 100
COC1=CC(=O)C2=C(C1=O)[C@H]1CC[C@]3(C)C(=O)CC[C@H]3[C@@H]1CC2 | – | > 100 | > 100 | 59.8 | 30.4 | 45.6 | 58.7 | > 100 | > 100 | 35.4 | > 100 | 38.1 | > 100 | 35.4 | 33.1 | 16.9 | > 100 | > 100
